Measurements from patent US10894798B2, “Substituted dihydropyrrolopyrazole derivative” (UBE INDUSTRIES, LTD., priority 2015, dated 2021).

What was measured:
[1] = tested on: multiple myeloma cell line NCI-H929; assay: Various human cancer cell growth inhibition test: NCI-H929; assay type: cell-based; details: CellTiter-Glo, read-out: GI50 value (concentration necessary for inhibiting 50% of cell growth)
Excerpt: (§1) A breast cancer cell line BT-549 (obtained from American Type Culture Collection (ATCC)), a uterus cancer cell line C-33A (obtained from ATCC), an ovary cancer cell line PA-1 (obtained from ATCC), a large-cell lung cancer cell line NCI-H460 (obtained from ATCC), a small-cell lung cancer cell line NCI-H82 (obtained from ATCC), a kidney cancer cell line ACHN (obtained from ATCC), a pancreatic cancer cell line BxPC-3 (obtained from ATCC), a malignant melanoma cell line A375 (obtained from ATCC), a throat cancer cell line FaDu (obtained from ATCC), a medulloblastoma cell line Daoy (obtained from ATCC), a cutaneous epithelioid sarcoma cell line VA-ES-BJ (obtained from ATCC), a rhabdomyosarcoma cell line A-204 (obtained from ATCC), a prostate cancer cell line DU145 (obtained from ATCC), a bladder cancer cell line T24 (obtained from ATCC), a lymphoma cell line SR (obtained from ATCC), a neuroblastoma cell line SH-SY5Y (obtained from DS Pharma Biomedical Co., Ltd.), a liver cancer cell line HepG2 (obtained from DS Pharma Biomedical Co., Ltd.), a stomach cancer cell line HGC-27 (obtained from DS Pharma Biomedical Co., Ltd.), and a multiple myeloma cell line NCI-H929 (obtained from DS Pharma Biomedical Co., Ltd.) were used as human cancer cell lines.
(§2) Each cell line was cultured in a cell culture medium recommended by ATCC or DS Pharma Biomedical Co., Ltd. and inoculated at 0.3 to 5.0×10^3 cells/well to a 96-well plate. The cells were cultured overnight in a carbon dioxide incubator of 37° C. containing 5% carbon dioxide. The medium was replaced with a fresh medium on the next day, then replaced with a mixed solution of a DMSO solution of a test compound with varying concentrations and a culture medium (final DMSO concentration: 0.1%), and left standing in a carbon dioxide incubator (day 0). IV-361, IV-379, IV-3, IV-215, IV-299, IV-669, IV-1049, and palbociclib (for comparison) were used as test compounds. For a control group, DMSO was added instead of the DMSO solution of the test compound to a cell culture medium (final DMSO concentration: 0.1%).
(§3) After culture for a predetermined period, the ATP activity of BT-549, C-33A, PA-1, NCI-H460, NCI-H82, ACHN, BxPC-3, A375, FaDu, Daoy, VA-ES-BJ, A-204, DU145, T24, and SR was measured by using ATPlite (manufactured by PerkinElmer, Inc.). The ATP activity of SH-SY5Y, HepG2, HGC-27, and NCI-H929 was measured by using CellTiter-Glo (manufactured by Promega Corp.).
(§4) The rate of inhibition of cell growth (%) was calculated according to the expression given below. Specifically, in the case where the difference between the ATP activity before culture (day 0) and the ATP activity after culture in the test compound-administered group is the same as the difference between the ATP activity before culture (day 0) and the ATP activity after culture in the control group, the rate of inhibition of cell growth is 0%. Rate of inhibition of cell growth=(1−((ATP activity of the test compound-administered group after culture)−(ATP activity of the test compound-administered group on day 0))/((ATP activity of the control group after culture)−(ATP activity of the control group on day 0)))×100
(§5) The concentration of the test compound necessary for inhibiting 50% of cell growth (GI50 value) was calculated by using EXSUS (version 8.1.0, manufactured by CAC Exicare Corp.).

[2] = tested on: throat cancer cell line FaDu; assay: Various human cancer cell growth inhibition test: FaDu; assay type: cell-based; details: ATPlite, read-out: GI50 value (concentration necessary for inhibiting 50% of cell growth)
Excerpt: as §1, §2, §3, §4, §5

[3] = tested on: breast cancer cell line BT-549; assay: Various human cancer cell growth inhibition test: BT-549; assay type: cell-based; details: ATPlite, read-out: GI50 value (concentration necessary for inhibiting 50% of cell growth)
Excerpt: as §1, §2, §3, §4, §5

[4] = tested on: lymphoma cell line SR; assay: Various human cancer cell growth inhibition test: SR; assay type: cell-based; details: ATPlite, read-out: GI50 value (concentration necessary for inhibiting 50% of cell growth)
Excerpt: as §1, §2, §3, §4, §5

[5] = tested on: stomach cancer cell line HGC-27; assay: Various human cancer cell growth inhibition test: HGC-27; assay type: cell-based; details: CellTiter-Glo, read-out: GI50 value (concentration necessary for inhibiting 50% of cell growth)
Excerpt: as §1, §2, §3, §4, §5

[6] = tested on: uterus cancer cell line C-33A; assay: Various human cancer cell growth inhibition test: C-33A; assay type: cell-based; details: ATPlite, read-out: GI50 value (concentration necessary for inhibiting 50% of cell growth)
Excerpt: as §1, §2, §3, §4, §5

[7] = tested on: IL-2 production; assay: Human PBMC CD3/CD28-induced IL-2 production inhibition test; assay type: cell-based; details: 48 h; human PBMC, CD3/CD28 stimulation, culture for 2 days, ELISA; read-out: IC50 value, IL-2 production inhibition
Method: PBMC (peripheral blood mononuclear cell) was separated and collected by using Ficoll-Paque (manufactured by GE Healthcare Japan Corp.) from blood collected from a healthy human adult in the presence of heparin. A RPMI1640 medium containing 10% FBS, 1% penicillin/streptomycin/amphotericin B, essential amino acids, and pyruvic acid and containing a test compound dissolved in DMSO and 2 μg/mL CD28 was added at 100 μL/well to T cell Activation Plate Anti-Human CD3 96-well plate (manufactured by Becton, Dickinson and Company), and subsequently, a PBMC suspension prepared such that the number of cells was 2×10^6 cells/mL was added thereto at 100 μL/well (final DMSO concentration: 0.1%). A RPMI1640 medium containing 10% FBS and containing 0.1% DMSO and 2 μg/mL CD28 was similarly added to wells not supplemented with the test compound. After culture for 2 days in a carbon dioxide incubator, the culture supernatant was collected. The collected culture supernatant was stored at −20° C. until IL-2 content measurement.
In the measurement of an L-2 content in the culture supernatant, a sandwich ELISA kit (Quantikine Human IL-2, manufactured by R&D Systems, Inc.) was used. The L-2 content of each sample was calculated from the calibration curve of Standard IL-2 included in the kit. […] A test compound concentration necessary for inhibiting 50% of L-2 production (IC50 value) was calculated from the concentration of the added test compound and the rate of inhibition of IL-2 production by the test compound by using EXSUS (version 8.1.0, manufactured by CAC Exicare Corp.).

[8] = tested on: mouse imiquimod-induced psoriasis model; assay: Ear thickening suppression test using mouse imiquimod-induced psoriasis model; assay type: in vivo; details: topical, application of a 0.01% solution in methanol, female BALB/c mice, read-out: rate of inhibition of increase in ear thickness
Method: An imiquimod-induced psoriasis model test was carried out by modifying the method of Leslie van der Fits et al. (J. Immunol. 182, 5836 (2009)).
Female BALB/c mice (supplied by Charles River Laboratories Japan, Inc.) were used as laboratory animals. On the start day of the test, the thicknesses of the right auricles of the mice were measured with a thickness gauge (manufactured by TECLOCK Corp.). A test compound or a solvent was applied or orally administered thereto, and after a certain time, a certain amount of Beselna Cream 5% (containing 5% imiquimod, manufactured by Mochida Pharmaceutical Co., Ltd.) was applied to the insides of the right auricles. The test compound or solvent application or oral administration and the imiquimod application were carried out for a certain period, and the thicknesses of the right auricles were measured again on the final day. The thicknesses of the right auricles were compared between the solvent-administered group and the test compound group, and the rate of inhibition was calculated.

SMILES	GI50 [1] [µM]	GI50 [2] [µM]	GI50 [3] [µM]	GI50 [4] [µM]	GI50 [5] [µM]	GI50 [6] [µM]	IC50 [7] [µM]	inhibition in vivo at 0.01 % [8] [%]
Cc1cccc(Cl)c1NC(=O)N1Cc2c(NC(=O)C3([Si](C)(C)C)CCC3)n[nH]c2C1(C)C [IV-215, N-(2-Chloro-6-methylphenyl)-6,6-dimethyl-3-[1-(trimethylsilyl)cyclobutanecarboxamido]-4,6-dihydropyrrolo[3,4-c]pyrazole-5 (1H)-carboxamide]	< 0.3	< 0.3	< 0.3	< 0.3	< 0.3	< 0.3	≤ 0.1	≥ 50
Cc1cccc(Br)c1NC(=O)N1Cc2c(NC(=O)C3([Si](C)(C)C)CCC3)n[nH]c2C1(C)C [IV-299, N-(2-Bromo-6-methylphenyl)-6,6-dimethyl-3-[1-(trimethylsilyl)cyclobutanecarboxamido]-4,6-dihydropyrrolo[3,4-c]pyrazole-5 (1H)-carboxamide]	< 0.3	< 0.3	< 0.3	< 0.3	< 0.3	< 0.3	≤ 0.1	≥ 50
CC1(C)c2[nH]nc(NC(=O)C3([Si](C)(C)C)CCC3)c2CN1C(=O)Nc1c(F)ccc2ccoc12 [IV-1049, N-(6-Fluorobenzofuran-7-yl)-6,6-dimethyl-3-[1-(trimethylsilyl)cyclobutanecarboxamido]-4,6-dihydropyrrolo[3,4-c]pyrazole-5 (1H)-carboxamide]	< 0.3	< 0.3	< 0.3	< 0.3	< 0.3	< 0.3	≤ 0.1	–
